Here are results for one compound from US20180119171A1, “REPLICATIVE VACCINIA VIRUS VECTOR HIV VACCINE” (priority 2014, published 2018).

In assay [1] the test system is VTT. Format: cell-based, vaccinia virus Tiantan strain.
Assay [2] concerns TT-TK. The class given is cell-based, recombinant vaccinia virus Tiantan strain.
The subject of the next assay is TT-EnvTK. Format: cell-based, recombinant vaccinia virus Tiantan strain.
Assay [3] deals with VTT. The arrangement: species or system C57BL mice. The note with it: mouse, in vivo.
Assay [4] concerns TT-TK. Also on record: species or system C57BL mice. The note with it: mouse, in vivo.
Another assay relates to vaccinia virus. The note with it: reference [10]; cited from earlier work.

A word on the EC50: it is the concentration that produces a half-maximal response. Take `Nc1nc(O)c2ncn(COC(CO)CO)c2n1` [GCV, ganciclovir]: the “inhibition effect on virus plaque number, VTT” value in the assay with VTT [1] is reported as “no inhibition effects”. Also, the “inhibition effect on virus plaque number, TT-TK” value with TT-TK [2] is listed as “clear inhibition effects”. Moreover, the “inhibition effect on virus plaque number, TT-EnvTK” value in the assay on TT-EnvTK is listed as “clear inhibition effects”. Also, the “virus titre in mice ovaries, VTT inoculation, GCV injected” value in the assay with VTT [3] is given as 1×10^6 PFU. The “virus titre in mice ovaries, TT-TK inoculation, GCV injected” value in the assay with TT-TK [4] is recorded as “No virus was detected”. Also, the EC50 in the assay on vaccinia virus was greater than 300 µM.
